Data: PubChem BioAssay (NCI)
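Following 48 hours of exposure in 96-well plates, responses at five concentrations were used to interpolate endpoints linearly. Abbreviation: GI50, concentration required for 50% inhibition of growth. TGI: concentration producing complete growth inhibition.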

How the values were obtained:
Test in all cases: DTP human tumour cell line panel, 48 h
[1] = system: T-47D breast
[2] = system: MDA-MB-435
[3] = system: MALME-3M melanoma
[4] = system: BT-549 breast
[5] = system: M14 melanoma
[6] = system: SF-268 CNS
[7] = system: HCT-15 colon
[8] = system: HCT-116 colon

With `O=C(Nc1ccc(OC(F)(F)F)cc1)c1sccc1NCc1ccnc2ccccc12` the GI50 [1] was 2.48 µM, the TGI [1] was greater than 95.9 µM and the GI50 [2] was 2.87 µM. The TGI [2] was 18.7 µM, the GI50 [3] was 1.85 µM and the TGI [3] was 14.6 µM. The GI50 [4] was 6.9 µM, the TGI [4] was 51.5 µM and the GI50 [5] was 2.74 µM. The TGI [5] was 30.6 µM, the GI50 [6] was 5.26 µM and the TGI [6] was greater than 100 µM. The GI50 [7] was 3.22 µM, the TGI [7] was greater than 66.7 µM and the GI50 [8] was 2.12 µM. The TGI [8] was greater than 100 µM.
With `CS(=O)(=O)c1ccc(Cl)c([N+](=O)[O-])c1` the GI50 [1] was 13.5 µM, the TGI [1] was 35.1 µM and the GI50 [2] was 18.9 µM. It also gave a TGI [2] of 38.4 µM, a GI50 [3] of 21 µM and a TGI [3] of 44.9 µM. The GI50 [4] was 18.7 µM, the TGI [4] was 32.8 µM and the GI50 [5] was 17 µM. It also gave a TGI [5] of 31.7 µM, a GI50 [6] of 18.5 µM and a TGI [6] of 36.3 µM. It also gave a GI50 [7] of 5.91 µM, a TGI [7] of 23.3 µM and a GI50 [8] of 12.9 µM. For the same compound, the TGI [8] was 25.7 µM.
Compound `Nc1cc(N)c2nc(-c3ccccc3)c(Oc3ccc(F)cc3)nc2c1` has a GI50 [2] of 15.8 µM, a TGI [2] of 32.6 µM and a GI50 [4] of 15 µM. It also gave a TGI [4] of 34.8 µM, a GI50 [5] of 17.1 µM and a TGI [5] of 45 µM. The GI50 [6] was 13.8 µM, the TGI [6] was 47.6 µM and the GI50 [7] was 36 µM. The TGI [7] was greater than 100 µM, the GI50 [8] was 14.8 µM and the TGI [8] was 80.7 µM.
Compound `COc1cc2cc(Oc3ccc(NC(=O)c4cccc(C(F)(F)F)c4)cc3)c(C)nc2cc1OC` has a GI50 [1] of 3.23 µM, a TGI [1] greater than 100 µM and a GI50 [2] of 5.39 µM. For the same compound, the TGI [2] was greater than 100 µM, the GI50 [3] was greater than 100 µM and the TGI [3] was greater than 100 µM. For the same compound, the GI50 [4] was 3.31 µM, the TGI [4] was greater than 100 µM and the GI50 [5] was 4.02 µM. For the same compound, the TGI [5] was greater than 100 µM, the GI50 [6] was greater than 100 µM and the TGI [6] was greater than 100 µM. It also gave a GI50 [7] of 4.65 µM, a TGI [7] greater than 100 µM and a GI50 [8] of 3.22 µM. It also gave a TGI [8] greater than 100 µM.
`N#CC(C#N)SCc1ccccc1` gave a TGI [1] greater than 100 µM, a TGI [2] of 35.7 µM and a TGI [3] greater than 100 µM. The TGI [5] was greater than 100 µM, the TGI [6] was greater than 100 µM and the TGI [7] was greater than 92 µM. The TGI [8] was 75.5 µM.
`NS(=O)(=O)c1ccc(N2Cc3cc(Cl)ccc3OC3=C2C(=O)N(CC2CCCCC2)C3=O)cc1` was tested, and the GI50 [1] was 0.365 µM, the TGI [1] was 1.86 µM and the GI50 [2] was 0.903 µM. For the same compound, the TGI [2] was 2.23 µM, the GI50 [3] was 1.3 µM and the TGI [3] was 2.83 µM. It also gave a GI50 [4] of 0.546 µM, a TGI [4] of 1.97 µM and a GI50 [5] of 1.25 µM. It also gave a TGI [5] of 2.95 µM, a GI50 [6] of 1.22 µM and a TGI [6] of 2.69 µM. For the same compound, the GI50 [7] was 0.344 µM, the TGI [7] was 1.45 µM and the GI50 [8] was 0.208 µM. The TGI [8] was 0.44 µM.
With `S=C(N/N=C/c1cc(Cl)cc(Cl)c1)NC12CC3CC(CC(C3)C1)C2` the GI50 [1] was 6.94 µM, the TGI [1] was greater than 100 µM and the GI50 [2] was greater than 27.6 µM. The TGI [2] was greater than 100 µM, the GI50 [3] was 5.12 µM and the TGI [3] was 50.7 µM. For the same compound, the GI50 [4] was greater than 100 µM, the TGI [4] was greater than 100 µM and the GI50 [5] was 65 µM. The TGI [5] was greater than 100 µM, the GI50 [6] was 6.18 µM and the TGI [6] was greater than 100 µM. The GI50 [7] was greater than 56.6 µM, the TGI [7] was greater than 100 µM and the GI50 [8] was 5.24 µM. It also gave a TGI [8] greater than 100 µM.
In the case of `Nc1c(C(=O)Nc2ccc([As](=O)(O)O)cc2)cnc2nnnn12`, the TGI [1] was greater than 100 µM, the TGI [2] was greater than 100 µM and the TGI [3] was greater than 100 µM. It also gave a TGI [4] greater than 100 µM, a TGI [5] greater than 100 µM and a TGI [6] greater than 100 µM. The TGI [7] was greater than 100 µM and the TGI [8] was greater than 100 µM.
